From ChEMBL document CHEMBL1201862, “PubChem BioAssay data set” (2004)
Activity calls are given as the source filed them.

Key:
[1] = mitochondrial function rescue without frataxin homolog – Friedreich's ataxia, plus single-dose screen, dose response (AID 1465); type: functional;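 further: yeast depleted of Yfh1p frataxin homolog grown on glycerol needing respiration; WST-1 tetrazolium dye reduction as measure of cellular dehydrogenase metabolic activity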
[2] = target: FAD-linked sulfhydryl oxidase ALR (Homo sapiens, UniProt P55789); assay: ALR-catalysed DTT oxidation blockers – biochemical, H2O2 detection, luminescence, cherry-pick, dose response (AID 493248)
Hexokinase HKDC1 = Hexokinase HKDC1 (Homo sapiens, UniProt Q2TB90); assay: inhibition of HKDC1 glucose phosphorylation – biochemical, W721R variant, dose response (AID 504729); type: functional
[3] = target: T1, Microphthalmia-associated transcription factor (Homo sapiens, UniProt O75030); assay: reducers of TRPM1 reporter luminescence, concentration series – cell-based, SK-MEL-5, cherry-picked, set 3, MITF inhibitor project, dose response (AID 493073); type: functional;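 further: SK-MEL-5 melanoma cells with luciferase driven by the MITF target TRPM1 promoter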
T1 sequence (O75030 whole entry): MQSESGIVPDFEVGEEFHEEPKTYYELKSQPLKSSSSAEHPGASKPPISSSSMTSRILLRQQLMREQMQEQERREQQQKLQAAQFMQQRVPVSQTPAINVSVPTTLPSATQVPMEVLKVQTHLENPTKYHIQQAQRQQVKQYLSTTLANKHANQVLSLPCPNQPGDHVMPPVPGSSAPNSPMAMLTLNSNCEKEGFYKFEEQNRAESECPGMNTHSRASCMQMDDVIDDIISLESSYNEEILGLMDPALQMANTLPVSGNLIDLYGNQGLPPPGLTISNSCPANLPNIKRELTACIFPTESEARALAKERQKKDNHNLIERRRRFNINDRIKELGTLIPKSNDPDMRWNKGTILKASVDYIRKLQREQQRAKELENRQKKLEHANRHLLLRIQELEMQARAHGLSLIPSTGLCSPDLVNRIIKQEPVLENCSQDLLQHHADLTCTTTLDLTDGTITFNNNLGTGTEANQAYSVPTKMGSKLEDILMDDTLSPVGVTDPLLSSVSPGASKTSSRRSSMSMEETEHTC

[4] = target: T2, Replicative DNA helicase DnaB (Mycobacterium tuberculosis, UniProt P9WMR3); assay: DnaB intein splicing inhibitors, dose response, biochemical, cell-free fluorescence (AID 449749); type: functional
T2 sequence (P9WMR3 whole entry): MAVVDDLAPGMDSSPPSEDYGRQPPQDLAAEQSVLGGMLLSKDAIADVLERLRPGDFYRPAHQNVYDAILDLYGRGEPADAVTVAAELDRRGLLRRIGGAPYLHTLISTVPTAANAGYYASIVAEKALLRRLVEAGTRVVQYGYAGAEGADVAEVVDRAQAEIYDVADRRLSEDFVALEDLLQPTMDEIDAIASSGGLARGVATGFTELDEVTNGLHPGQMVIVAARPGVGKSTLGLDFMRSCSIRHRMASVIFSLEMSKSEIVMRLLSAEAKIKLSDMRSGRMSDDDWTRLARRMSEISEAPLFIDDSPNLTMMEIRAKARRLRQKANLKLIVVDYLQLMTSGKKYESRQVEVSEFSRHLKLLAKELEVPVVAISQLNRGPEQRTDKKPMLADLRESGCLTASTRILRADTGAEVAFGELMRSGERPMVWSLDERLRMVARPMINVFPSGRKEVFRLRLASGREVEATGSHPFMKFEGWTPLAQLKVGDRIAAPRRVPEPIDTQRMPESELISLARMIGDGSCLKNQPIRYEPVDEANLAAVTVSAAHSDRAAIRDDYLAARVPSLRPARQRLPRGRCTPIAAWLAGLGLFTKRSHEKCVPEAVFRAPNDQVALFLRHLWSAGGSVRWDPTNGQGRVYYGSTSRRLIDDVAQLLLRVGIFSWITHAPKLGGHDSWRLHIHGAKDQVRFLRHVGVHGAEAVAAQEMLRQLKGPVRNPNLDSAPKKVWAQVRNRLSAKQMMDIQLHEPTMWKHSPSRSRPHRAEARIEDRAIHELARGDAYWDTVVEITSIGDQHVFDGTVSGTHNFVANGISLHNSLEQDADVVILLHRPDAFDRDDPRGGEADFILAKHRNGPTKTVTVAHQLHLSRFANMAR

Vero = assay: viability of Vero cells under compound – cytotoxicity control for flavivirus capping enzyme inhibitors (AID 588742); type: functional; settings: Chlorocebus sabaeus
Protein RecA = target: T3, Protein RecA (Mycobacterium tuberculosis, UniProt P9WHJ3); assay: Fluorescence Cell-Free Homogeneous Dose Retest to Identify Inhibitors of RecA-Intein Splicing Activity. [Related pubchem assays (depositor defined):AID2097, AID2223, AID489010, AID492950]; type: functional
T3 sequence (P9WHJ3 whole entry): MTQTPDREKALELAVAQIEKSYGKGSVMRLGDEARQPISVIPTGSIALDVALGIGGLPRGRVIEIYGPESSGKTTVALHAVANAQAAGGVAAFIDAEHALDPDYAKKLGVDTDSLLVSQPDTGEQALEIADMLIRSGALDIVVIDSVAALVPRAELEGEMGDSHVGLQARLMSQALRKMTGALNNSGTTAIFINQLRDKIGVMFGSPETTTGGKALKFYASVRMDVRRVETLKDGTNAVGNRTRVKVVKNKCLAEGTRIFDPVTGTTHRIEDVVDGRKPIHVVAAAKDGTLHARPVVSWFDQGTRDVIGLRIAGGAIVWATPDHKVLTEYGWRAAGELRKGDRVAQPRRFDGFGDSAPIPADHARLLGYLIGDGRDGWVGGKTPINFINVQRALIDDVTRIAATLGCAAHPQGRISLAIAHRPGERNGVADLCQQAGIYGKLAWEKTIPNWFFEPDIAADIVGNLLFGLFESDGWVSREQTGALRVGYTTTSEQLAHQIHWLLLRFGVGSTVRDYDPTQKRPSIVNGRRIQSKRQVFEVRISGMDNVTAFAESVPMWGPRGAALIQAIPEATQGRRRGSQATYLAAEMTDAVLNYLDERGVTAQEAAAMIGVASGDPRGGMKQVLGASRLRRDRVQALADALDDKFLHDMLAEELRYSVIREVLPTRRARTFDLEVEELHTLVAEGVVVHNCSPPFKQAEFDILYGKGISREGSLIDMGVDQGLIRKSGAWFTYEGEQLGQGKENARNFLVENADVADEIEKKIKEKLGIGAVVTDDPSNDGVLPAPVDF

INS1 = assay: INS-1E survival protection against cytokine death – cell-based, luminescence, retest, dose response (AID 449756); type: functional; settings: Rattus norvegicus;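 further: cell death triggered by IL-1 beta plus TNF-alpha plus IFN-gamma mixture; protective hits raise ATP signal compared with cytokine alone wells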
A-375 = assay: proliferation inhibition in MITF-low A375 cells – cell-based, cherry-pick samples, set 2, counter-screen for MITF modulator project, dose response (AID 540335); type: functional; settings: Homo sapiens
[5] = target: T4, Polyadenylate-binding protein 1 (Homo sapiens, UniProt P11940); assay: MLLE binding blockers, Cy5 peptide tracer – biochemical, fluorescence polarization, Cy5-PAM2 peptide, secondary, miRNA deadenylation inhibitor project, dose response (AID 602260); type: functional; settings: read-out: IC50_Mean
[6] = target: T4, Polyadenylate-binding protein 1; assay: MLLE domain peptide-binding blockers, IC50 – biochemical, fluorescence polarization, FITC-PAM2 peptide, dose response (AID 602259); type: functional; settings: read-out: IC50_Mean
[7] = target: Voltage-gated N-type calcium channel alpha-1B subunit/Amyloid beta A4 precursor protein-binding family A member 1 (Homo sapiens, UniProt Q00975+Q02410); assay: disruptors of Mint-PDZ/N-type channel peptide interaction – biochemical, HTRF, set 2, SAR follow-up (AID 434980); type: functional
Wee1-like protein kinase = Wee1-like protein kinase (Homo sapiens, UniProt P30291); assay: HeLa cell cycle G2/M accumulation – FACS, mechanism study for Wee1 degradation inhibitor project, late-stage follow-up, panel member Wee1 Degradation (AID 2088)
[8] = target: G2/mitotic-specific cyclin-B1 (Homo sapiens, UniProt P14635); assay: HeLa cell cycle G2/M accumulation – FACS, mechanism study for Wee1 degradation inhibitor project, late-stage follow-up, panel member Cyclin B Degradation (AID 2088)
[9] = target: Cyclin-dependent kinase 5/CDK5 activator 1 (Homo sapiens, UniProt Q00535); assay: blockade of human CDK5 activity – biochemical, cherry-picked samples, set 2, dose response (AID 504545)
Chain of Cyclin-dependent kinase 5/CDK5 activator 1 (Q00535 whole entry): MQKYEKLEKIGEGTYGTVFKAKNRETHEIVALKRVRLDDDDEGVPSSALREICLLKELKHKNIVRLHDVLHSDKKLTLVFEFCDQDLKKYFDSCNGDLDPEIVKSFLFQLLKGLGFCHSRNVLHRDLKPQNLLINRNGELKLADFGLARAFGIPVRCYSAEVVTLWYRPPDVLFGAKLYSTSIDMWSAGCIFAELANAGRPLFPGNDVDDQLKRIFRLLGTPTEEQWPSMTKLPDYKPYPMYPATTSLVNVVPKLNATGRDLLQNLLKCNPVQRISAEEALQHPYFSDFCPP
Chain of Cyclin-dependent kinase 5/CDK5 activator 1 (Q15078 whole entry, further chain): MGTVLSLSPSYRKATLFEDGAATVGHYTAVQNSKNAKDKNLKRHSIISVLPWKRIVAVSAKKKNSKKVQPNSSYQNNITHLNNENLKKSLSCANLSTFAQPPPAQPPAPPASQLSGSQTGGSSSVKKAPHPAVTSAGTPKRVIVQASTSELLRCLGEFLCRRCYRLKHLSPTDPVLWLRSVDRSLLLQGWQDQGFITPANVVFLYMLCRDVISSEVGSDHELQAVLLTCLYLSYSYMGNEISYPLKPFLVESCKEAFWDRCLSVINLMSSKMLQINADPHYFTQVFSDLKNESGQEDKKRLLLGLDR

T4 sequence (P11940 whole entry, the tested form may be a part): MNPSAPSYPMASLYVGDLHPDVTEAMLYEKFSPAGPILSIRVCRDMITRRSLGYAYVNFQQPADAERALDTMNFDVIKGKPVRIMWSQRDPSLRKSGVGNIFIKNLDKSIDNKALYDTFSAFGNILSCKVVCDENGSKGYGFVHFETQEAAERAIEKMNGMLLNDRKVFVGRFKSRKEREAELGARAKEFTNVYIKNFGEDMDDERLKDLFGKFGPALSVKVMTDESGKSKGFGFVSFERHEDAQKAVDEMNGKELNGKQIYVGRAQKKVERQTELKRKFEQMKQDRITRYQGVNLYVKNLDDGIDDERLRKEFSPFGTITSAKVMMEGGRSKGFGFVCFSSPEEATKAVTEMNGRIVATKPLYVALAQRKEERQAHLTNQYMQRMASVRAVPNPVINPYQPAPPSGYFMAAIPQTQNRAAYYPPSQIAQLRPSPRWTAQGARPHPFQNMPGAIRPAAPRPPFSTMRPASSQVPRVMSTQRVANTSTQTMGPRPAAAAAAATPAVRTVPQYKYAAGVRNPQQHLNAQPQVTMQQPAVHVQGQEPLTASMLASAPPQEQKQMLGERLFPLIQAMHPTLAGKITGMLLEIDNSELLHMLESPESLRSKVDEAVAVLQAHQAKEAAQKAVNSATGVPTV
Chain of G2/mitotic-specific cyclin-B1 (P14635 whole entry): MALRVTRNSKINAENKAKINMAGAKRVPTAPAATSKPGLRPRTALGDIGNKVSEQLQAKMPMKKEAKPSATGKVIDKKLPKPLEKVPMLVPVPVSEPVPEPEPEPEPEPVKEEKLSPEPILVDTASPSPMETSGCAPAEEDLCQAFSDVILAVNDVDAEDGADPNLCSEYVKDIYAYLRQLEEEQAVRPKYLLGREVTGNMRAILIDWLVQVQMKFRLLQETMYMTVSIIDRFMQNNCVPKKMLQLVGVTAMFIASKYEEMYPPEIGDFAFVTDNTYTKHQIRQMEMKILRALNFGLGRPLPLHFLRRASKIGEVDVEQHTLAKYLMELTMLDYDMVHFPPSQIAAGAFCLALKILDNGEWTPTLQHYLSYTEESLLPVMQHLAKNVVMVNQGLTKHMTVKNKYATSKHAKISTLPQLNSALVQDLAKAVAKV
Chain of Wee1-like protein kinase (P30291 whole entry): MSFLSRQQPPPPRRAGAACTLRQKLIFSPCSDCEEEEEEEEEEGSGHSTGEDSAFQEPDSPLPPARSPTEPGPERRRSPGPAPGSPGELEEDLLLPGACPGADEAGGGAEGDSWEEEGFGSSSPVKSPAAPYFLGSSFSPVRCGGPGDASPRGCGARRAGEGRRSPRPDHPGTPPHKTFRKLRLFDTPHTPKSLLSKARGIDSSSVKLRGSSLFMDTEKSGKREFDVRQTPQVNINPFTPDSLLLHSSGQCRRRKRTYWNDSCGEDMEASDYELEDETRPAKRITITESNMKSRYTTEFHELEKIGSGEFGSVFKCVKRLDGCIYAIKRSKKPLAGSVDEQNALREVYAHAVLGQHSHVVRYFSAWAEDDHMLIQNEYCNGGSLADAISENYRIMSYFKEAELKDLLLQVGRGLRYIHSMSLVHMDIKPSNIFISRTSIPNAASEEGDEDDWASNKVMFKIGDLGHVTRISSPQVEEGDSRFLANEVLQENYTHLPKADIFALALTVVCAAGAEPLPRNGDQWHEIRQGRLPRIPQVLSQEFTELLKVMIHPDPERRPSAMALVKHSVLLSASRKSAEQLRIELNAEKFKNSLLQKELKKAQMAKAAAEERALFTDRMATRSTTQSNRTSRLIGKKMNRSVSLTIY
Chain of Hexokinase HKDC1 (Q2TB90 whole entry): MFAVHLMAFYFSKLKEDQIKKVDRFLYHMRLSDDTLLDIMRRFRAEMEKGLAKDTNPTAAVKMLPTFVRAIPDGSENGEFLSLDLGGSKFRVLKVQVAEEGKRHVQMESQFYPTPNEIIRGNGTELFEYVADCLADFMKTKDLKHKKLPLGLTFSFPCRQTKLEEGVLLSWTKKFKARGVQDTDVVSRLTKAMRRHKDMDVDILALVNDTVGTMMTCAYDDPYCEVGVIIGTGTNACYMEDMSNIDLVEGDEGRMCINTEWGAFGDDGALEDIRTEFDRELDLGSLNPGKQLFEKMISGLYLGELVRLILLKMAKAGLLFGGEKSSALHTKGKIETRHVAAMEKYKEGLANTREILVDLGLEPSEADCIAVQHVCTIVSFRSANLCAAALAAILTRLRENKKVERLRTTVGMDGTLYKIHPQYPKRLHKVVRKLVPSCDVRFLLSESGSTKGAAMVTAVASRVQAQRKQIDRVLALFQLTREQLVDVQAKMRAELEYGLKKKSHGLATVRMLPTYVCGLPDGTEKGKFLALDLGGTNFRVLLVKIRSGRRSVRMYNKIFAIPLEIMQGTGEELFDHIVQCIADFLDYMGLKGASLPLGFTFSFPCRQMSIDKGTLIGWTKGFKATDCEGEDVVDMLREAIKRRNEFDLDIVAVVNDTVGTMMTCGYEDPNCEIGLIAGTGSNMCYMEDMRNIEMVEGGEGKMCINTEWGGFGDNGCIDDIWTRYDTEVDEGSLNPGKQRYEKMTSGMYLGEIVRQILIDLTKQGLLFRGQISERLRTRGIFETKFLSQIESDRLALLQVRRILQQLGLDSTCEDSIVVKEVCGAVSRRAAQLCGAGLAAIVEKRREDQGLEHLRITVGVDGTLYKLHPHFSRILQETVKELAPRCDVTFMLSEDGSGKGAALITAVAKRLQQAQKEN
Chain of FAD-linked sulfhydryl oxidase ALR (P55789 whole entry): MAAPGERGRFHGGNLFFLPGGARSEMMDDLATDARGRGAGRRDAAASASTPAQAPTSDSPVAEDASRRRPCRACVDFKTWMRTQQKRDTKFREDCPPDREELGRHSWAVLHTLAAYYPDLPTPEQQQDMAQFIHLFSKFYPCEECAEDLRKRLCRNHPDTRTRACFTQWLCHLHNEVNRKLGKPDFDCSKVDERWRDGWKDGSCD

COc1ccc(S(=O)(=O)Nc2ccc(O)c3ccccc23)cc1
EC50 [1]: > 100 µM (active)
AC50 [2]: 18.4 µM (active)
IC50 (Hexokinase HKDC1): 21 µM (inactive)
AC50 [3]: 9.07 µM (active)
AC50 [4]: 0.0824 µM (active)
CC50 (Vero): > 40 µM (active)
EC50 (Protein RecA): 0.0478 µM (active)
AC50 (INS1): 4.67 µM (active)
AC50 (A-375): 33.1 µM (active)
IC50 [5]: > 66 µM (inactive)
IC50 [6]: > 66 µM (inactive)

O=C(NCCN1CCCCC1)c1cc(-c2ccco2)nc2ccccc12
IC50 [7]: > 56.8 µM (inactive)

Cc1ccc(Nc2cc(C)nn2-c2nc(C)cc(O)n2)cc1
EC50 (Wee1-like protein kinase): > 55.7 µM (inactive)
EC50 [8]: > 55.7 µM (inactive)

COc1ccc(C(=O)c2sc(NC(C)C)nc2N)cc1OC
AC50 [9]: 90.5 µM (active)
